{
  "source": "paper PMC6718988",
  "about": "“Bioactivity and Bactericidal Mechanism of Histidine-Rich β-Hairpin Peptide Against Gram-Negative Bacteria” (International Journal of Molecular Sciences, 2019)",
  "key": {"[1]": {"experiment": "LPS binding assay (BODIPY-TR-cadaverine displacement)", "design": "species or system E. coli", "conditions": "peptide concentration higher than 4 μM; 50 μg/mL LPS, 5 μg/mL BODIPY-TR cadaverine, Tris 50 mM pH 7.4; 100% = 10 μg/mL polymyxin B", "method": "The abilities of the antimicrobial peptides to bind LPS were determined using the fluorescent dye BODIPY-TR-cadaverine (BC) substitution method. LPS (50 μg/mL) from E. coli O111:B4 was incubated with BC (5 μg/mL) in Tris buffer (50 mm, pH 7.4) for 4 h. Next, 50 μL of various concentrations of peptides (final concentration of 1–64 μM) and 50 μL of LPS-BC mixture were added to 96-well plates, and the fluorescence was measured using a fluorescence spectrophotometer (Infinite 200 pro, Tecan, China) at an excitation wavelength of 580 nm and an emission wavelength of 620 nm. Each test was performed three times. The values were converted to %∆F (AU) using the following equation:%ΔF (AU) = [(Fobs − F0)/(F100 − F0)] × 100 where Fobs is the fluorescence value measured in the presence of the peptide, F0 is the initial fluorescence of LPS with BC without the addition of peptides, F100 is the fluorescence value produced by adding 10 μg/mL polymyxin B."}, "[2]": {"system": "TNF-α production in RAW264.7 cells", "experiment": "Inhibition of endotoxin-induced inflammation (LPS-stimulated TNF-α production)", "type": "cell-based, murine", "conditions": "32 μM peptide, 100 ng/mL LPS, 18 h, 37 °C, ELISA", "method": "TNF-α production by the RAW264.7 cells was stimulated with LPS to evaluate the LPS neutralization characteristics of the peptides. Briefly, (1.0–2.0) × 10^5 RAW264.7 cells were plated in 96-well plates and stimulated with LPS (100 ng/mL) for 18 h at 37 °C in the absence or presence of peptides (2–64 μM). The negative and positive controls were untreated cells and cells treated with LPS alone. The supernatant was used to evaluate the endotoxin neutralizing ability of the antimicrobial peptides by analyzing the TNF-α production using […] ELISA (Boster, Wuhan, China)."}, "[3]": {"system": "E. coli ATCC25922", "experiment": "SEM characterization of cell morphology", "type": "cell-based", "conditions": "E. coli ATCC25922, 1 × MIC (HV2 8 μM, PG-1 4 μM), 1 h", "method": "For the SEM sample preparation, E. coli ATCC25922 cells were cultured at 37 °C to mid-log phase in MH broth with constant shaking at 220 rpm, centrifuged at 1000 g and then adjusted to an OD600 of 0.1–0.2 in PBS. […] Bacteria incubated with PBS served as controls. After the incubation, the mixture was centrifuged at 5000 g for 5 min, and the collected bacteria were washed three times with PBS. Approximately 2.5% (w/v) glutaraldehyde was added for fixation at 4 °C overnight, followed by washing three times with PBS. The samples were dehydrated with 50%, 70%, 90%, 100% ethanol for 10 min. A mixture of ethanol and tert-butanol was added to the dried bacterial cells for 30 min, and then t-butanol was added for 1 h. Finally, the samples were dehydrated and coated with liquid CO2 in a critical point dryer and then observed using a Hitachi S-4800 SEM (Hitachi, Tokyo, Japan)."}, "[4]": {"system": "E. coli ATCC25922", "experiment": "Salt sensitivity assay (MIC in presence of physiological salts)", "type": "cell-based", "design": "unit not given here", "method": "Bacteria were inoculated into MHB and incubated overnight at 37 °C until the bacteria were in log phase growth. Next, we corrected the bacterial concentration to approximately 1 × 10^5 CFU/mL using MHB. […] After incubation at 37 °C for 24 h, the absorbance was measured at 492 nm using a microplate reader (Tecan GENios F129004, Tecan, Austria). Broth containing microbes and […] were used as positive and negative controls, respectively. The lowest peptide concentration with no increase in absorbance compared to that of the negative control was defined as the MIC. The experiments were independently performed three times. The effects of salt ions on the antibacterial activities of the antimicrobial peptides were evaluated. Different salt ion concentrations were added to BSA peptide dilutions, and the next steps followed the MIC measurement method. […] These tests were independently repeated three times."}, "[5]": {"system": "E. coli ATCC25922", "experiment": "Swimming motility assay", "type": "cell-based", "conditions": "E. coli ATCC25922, 0.3% agar, 1–8 μM peptide, 37 °C, 20 h; versus untreated control", "method": "The cell motility assay was performed on LB medium containing 0.3% agar. The peptides were added to 10 mL of medium at final concentrations of 1–8 μM. After mixing well, the mixtures were poured into 6-well plates and dried for 2 h. Subsequently, an overnight culture of E. coli ATCC 25922 was inoculated in the center of the movement plate. After incubation at 37 °C for 20 h, images were taken using a FluoroChemQ system (Cell biosciences, San Jose, CA, USA). The experiment was independently repeated three times."}, "[6]": {"system": "E. coli ATCC25922", "experiment": "Membrane depolarization (diSC3-5)", "type": "cell-based", "conditions": "E. coli ATCC25922, 0.5, 1 and 2×MIC", "method": "The effects of the antimicrobial peptides on the plasma membrane potential were determined used cell membrane potential-sensitive fluorescent dye diSC3-5. Briefly, E. coli ATCC25922 cells were incubated in MHB to mid-log phase at 37 °C, rinsed 3 times with HEPES buffer, adjusted to an OD600 of 0.05. Next, KCl was used to adjust the final concentration to 0.4 μM and diSC3-5 was added. The mixture was incubated for 30 min at 37 °C. The antibacterial peptides at concentrations of 0.5, 1 and 2×MIC were then added to a cuvette containing 2 mL of bacterial solution, and the fluorescence change was recorded from 0 to 600 s with an F-4500 fluorescence spectrophotometer (Hitachi, Tokyo, Japan) (excitation λ = 622 nm, emission λ = 670 nm). Bacteria without antimicrobial peptides were used to determine the background fluorescence."}, "[7]": {"system": "Gram-positive bacteria", "conditions": "24 h", "method": "The minimum inhibitory concentration (MIC) was measured using a broth microdilution method to determine the in vitro antimicrobial activity of the peptides. Bacteria were inoculated into MHB and incubated overnight at 37 °C until the bacteria were in log phase growth. Next, we corrected the bacterial concentration to approximately 1 × 10^5 CFU/mL using MHB. The peptides were added to 96-well plates containing 0.01% acetic acid and 0.2% bovine serum albumin at final concentrations ranging from 0.25 to 128 μM. After incubation at 37 °C for 24 h, the absorbance was measured at 492 nm using a microplate reader (Tecan GENios F129004, Tecan, Austria). Broth containing microbes and […] were used as positive and negative controls, respectively. The lowest peptide concentration with no increase in absorbance compared to that of the negative control was defined as the MIC. The experiments were independently performed three times."}},
  "note": "Where a SMILES comes first, the peptide text is derived from it. [ ]: non-standard residue; d: D form.",
  "data": [
    {"smiles": "CC(C)[C@H](NC(=O)CNC(=O)[C@H]1CCCN1C(=O)[C@@H](NC(=O)[C@H](Cc1c[nH]cn1)NC(=O)[C@@H](NC(=O)[C@H](Cc1c[nH]cn1)NC(=O)[C@@H](NC(=O)[C@H](CCCNC(=N)N)NC(=O)[C@@H](N)CCCNC(=N)N)C(C)C)C(C)C)C(C)C)C(=O)N[C@@H](Cc1c[nH]cn1)C(=O)N[C@H](C(=O)N[C@@H](Cc1c[nH]cn1)C(=O)N[C@H](C(=O)N[C@@H](CCCNC(=N)N)C(=O)N[C@@H](CCCNC(=N)N)C(N)=O)C(C)C)C(C)C", "note": "[HV2] (H-RRVHVHV[dP]GVHVHVRR-NH2; N-terminus assumed)", "values": [
      {"measurement": "LPS binding ability relative to binding activity of polymyxin B", "setting": "[1]", "result": "higher than 60%"},
      {"measurement": "neutralizing activity against LPS (TNF-α level)", "setting": "[2]", "result": "~100", "unit": "%"},
      {"measurement": "cell morphology by SEM", "setting": "[3]", "result": "rough and wrinkled"},
      {"measurement": "MIC, FeCl3", "setting": "[4]; E. coli ATCC25922, 4 μM FeCl3, unit not given", "result": 4},
      {"measurement": "MIC, NH4Cl", "setting": "[4]; E. coli ATCC25922, 6 μM NH4Cl, unit not given", "result": 4},
      {"measurement": "MIC, ZnCl2", "setting": "[4]; E. coli ATCC25922, 8 μM ZnCl2, unit not given", "result": 1},
      {"measurement": "MIC, MgCl2", "setting": "[4]; E. coli ATCC25922, 1 mM MgCl2, unit not given", "result": 8},
      {"measurement": "MIC, KCl", "setting": "[4]; E. coli ATCC25922, 4.5 mM KCl, unit not given", "result": 4},
      {"measurement": "MIC, NaCl", "setting": "[4]; E. coli ATCC25922, 150 mM NaCl, unit not given", "result": 4},
      {"measurement": "MIC, Control", "setting": "[4]; E. coli ATCC25922, absence of physiological salts, no unit printed in Table 3 (Table 2 MIC in μM)", "result": 8},
      {"measurement": "swimming motility (diameter of swimming bacteria)", "setting": "[5]", "result": "significantly reduced the diameter of the swimming bacteria"},
      {"measurement": "plasma membrane depolarization (diSC3-5 release)", "setting": "[6]", "result": "more rapid and stronger plasma membrane depolarization relative to PG-1"},
      {"measurement": "MBC (GM), geometric mean of MICs, Gram (+)", "setting": "[7]", "result": 256, "unit": "µM"}
    ]}
  ]
}
